In patent US20100137313A1 (ASTRAZENECA AB, priority 2008, published 2010):

Biological target: S. pneumoniae Topoisomerase IV ATPase (ParE) (Streptococcus pneumoniae serotype 4, UniProt Q59961)
Experiment: S. pneumoniae Topoisomerase IV ATPase inhibition
Assay type: biochemical
Conditions: values marked * are an average of two or more data points, read-out: % Inh (13 μM) of S. pneumoniae Topoisomerase IV ATPase
Outline: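 Phosphate release by ParE ATPase from S. pneumoniae read colorimetrically (malachite green, 650 nm), enzyme 1.25 nM, ATP 160 μM, salmon sperm DNA present, buffer 20 mM Tris pH 8.0 with 8 mM MgCl2. IC50 over 10 compound concentrations, EDTA (20 μM) and DMSO controls defining inhibition range.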

Sequence of S. pneumoniae Topoisomerase IV ATPase (ParE) (Q59961 whole entry): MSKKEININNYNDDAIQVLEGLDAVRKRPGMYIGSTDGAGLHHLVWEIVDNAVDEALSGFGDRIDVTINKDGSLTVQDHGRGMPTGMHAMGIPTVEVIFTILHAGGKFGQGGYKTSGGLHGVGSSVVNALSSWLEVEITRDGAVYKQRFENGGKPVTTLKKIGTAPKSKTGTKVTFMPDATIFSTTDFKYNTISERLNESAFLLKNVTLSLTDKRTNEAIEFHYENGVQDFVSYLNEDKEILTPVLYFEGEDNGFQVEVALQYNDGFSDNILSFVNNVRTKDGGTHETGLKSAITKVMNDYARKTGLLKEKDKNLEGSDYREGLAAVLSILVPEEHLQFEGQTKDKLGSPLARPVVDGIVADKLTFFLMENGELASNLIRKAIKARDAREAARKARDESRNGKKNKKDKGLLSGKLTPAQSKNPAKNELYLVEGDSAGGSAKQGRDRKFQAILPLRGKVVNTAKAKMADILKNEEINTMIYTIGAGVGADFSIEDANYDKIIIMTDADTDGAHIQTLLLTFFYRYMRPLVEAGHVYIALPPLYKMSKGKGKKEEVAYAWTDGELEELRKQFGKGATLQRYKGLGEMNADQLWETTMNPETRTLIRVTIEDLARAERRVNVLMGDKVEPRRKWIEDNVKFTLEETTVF

SMILES | inhibition at 13 µM
Cc1cc(C(F)(F)F)nn1-c1nc(Nc2ccc(F)c(Cl)c2)ncc1-c1cnc(OC2CCN(C)C2)c(C(=O)O)c1 (stereo not shown) [Example 787, 5-{2-[(3-chloro-4-fluorophenyl)amino]-4-[5-methyl-3-(trifluoromethyl)-1H-pyrazol-1-yl]pyrimidin-5-yl}-2-[(1-methylpyrrolidin-3-yl)oxy]pyridine-3-carboxylic acid] | 97%
CN1CCC(Oc2ncc(-c3cnc(Nc4ccc(F)c(Cl)c4)nc3-n3ccc(C(F)(F)F)n3)cc2C(=O)O)C1 (stereo not shown) [Example 789, 5-{2-[(3-chloro-4-fluorophenyl)amino]-4-[3-(trifluoromethyl)-1H-pyrazol-1-yl]pyrimidin-5-yl}-2-[(1-methylpyrrolidin-3-yl)oxy]pyridine-3-carboxylic acid] | 99%
Cc1cc(C(F)(F)F)nn1-c1nc(Nc2ccc(F)c(Cl)c2)ncc1-c1cnc(OC(C)c2ccncc2)c(C(=O)O)c1 (stereo not shown) [Example 791, 5-{2-[(3-chloro-4-fluorophenyl)amino]-4-[5-methyl-3-(trifluoromethyl)-1H-pyrazol-1-yl]pyrimidin-5-yl}-2-[1-(pyridin-4-yl)ethoxy]pyridine-3-carboxylic acid] | 97%
CC(Oc1ncc(-c2cnc(Nc3ccc(F)c(Cl)c3)nc2-n2ccc(C(F)(F)F)n2)cc1C(=O)O)c1ccncc1 (stereo not shown) [Example 793, 5-{2-[(3-chloro-4-fluorophenyl)amino]-4-[3-(trifluoromethyl)-1H-pyrazol-1-yl]pyrimidin-5-yl}-2-[1-(pyridin-4-yl)ethoxy]pyridine-3-carboxylic acid] | 100%
Cc1cc(C(F)(F)F)nn1-c1nc(Nc2ccc(F)c(Cl)c2)ncc1-c1cnc(OCCn2ccnc2)c(C(=O)O)c1 [Example 795, 5-{2-[(3-chloro-4-fluorophenyl)amino]-4-[5-methyl-3-(trifluoromethyl)-1H-pyrazol-1-yl]pyrimidin-5-yl}-2-[2-(1H-imidazol-1-yl)ethoxy]pyridine-3-carboxylic acid] | 100%
O=C(O)c1cc(-c2cnc(Nc3ccc(F)c(Cl)c3)nc2-n2ccc(C(F)(F)F)n2)cnc1OCCn1ccnc1 [Example 797, 5-{2-[(3-chloro-4-fluorophenyl)amino]-4-[3-(trifluoromethyl)-1H-pyrazol-1-yl]pyrimidin-5-yl}-2-[2-(1H-imidazol-1-yl)ethoxy]pyridine-3-carboxylic acid] | 100%
COc1ncc(-c2cnc(Nc3cc(C)cc(Cl)c3)nc2-n2ccc(C(F)(F)F)n2)cc1C(=O)O [Example 799, 5-{2-[(3-chloro-5-methylphenyl)amino]-4-[3-(trifluoromethyl)-1H-pyrazol-1-yl]pyrimidin-5-yl}-2-methoxypyridine-3-carboxylic acid] | 100%
COc1ncc(-c2cnc(Nc3cc(C)cc(Cl)c3)nc2-n2ccc(C(F)(F)F)n2)cc1C(=O)NS(C)(=O)=O [Example 800, 5-{2-[(3-chloro-5-methylphenyl)amino]-4-[3-(trifluoromethyl)-1H-pyrazol-1-yl]pyrimidin-5-yl}-2-methoxy-N-(methylsulfonyl)pyridine-3-carboxamide] | 99%
COc1ncc(-c2cnc(Nc3cc(C)cc(Cl)c3)nc2-n2nc(C(F)(F)F)cc2C)cc1C(=O)O [Example 802, 5-{2-[(3-chloro-5-methylphenyl)amino]-4-[5-methyl-3-(trifluoromethyl)-1H-pyrazol-1-yl]pyrimidin-5-yl}-2-methoxypyridine-3-carboxylic acid] | 100%
COc1ncc(-c2cnc(Nc3cc(C)cc(Cl)c3)nc2-n2nc(C(F)(F)F)cc2C)cc1C(=O)NS(C)(=O)=O [Example 803, 5-{2-[(3-chloro-5-methylphenyl)amino]-4-[5-methyl-3-(trifluoromethyl)-1H-pyrazol-1-yl]pyrimidin-5-yl}-2-methoxy-N-(methylsulfonyl)pyridine-3-carboxamide] | 100%
COc1cc(Nc2ncc(-c3cnc(OC)c(-c4n[nH]c(=O)o4)c3)c(-n3nc(C(F)(F)F)cc3C)n2)cc(OC)c1 [Example 805, 5-(5-{2-[(3,5-dimethoxyphenyl)amino]-4-[5-methyl-3-(trifluoromethyl)-1H-pyrazol-1-yl]pyrimidin-5-yl}-2-methoxypyridin-3-yl)-1,3,4-oxadiazol-2(3H)-one] | 100%
COc1cc(Nc2ncc(-c3cnc(OC)c(-c4n[nH]c(=O)o4)c3)c(-n3ccc(C(F)(F)F)n3)n2)cc(OC)c1 [Example 807, 5-(5-{2-[(3,5-dimethoxyphenyl)amino]-4-[3-(trifluoromethyl)-1H-pyrazol-1-yl]pyrimidin-5-yl}-2-methoxypyridin-3-yl)-1,3,4-oxadiazol-2(3H)-one] | 100%
CNC(=O)c1cc(-c2cnc(Nc3cc(OC)cc(OC)c3)nc2-n2nc(C(F)(F)F)cc2C)cnc1OC [Example 808, 5-{2-[(3,5-dimethoxyphenyl)amino]-4-[5-methyl-3-(trifluoromethyl)-1H-pyrazol-1-yl]pyrimidin-5-yl}-2-methoxy-N-methylpyridine-3-carboxamide] | 100%
CNC(=O)c1cc(-c2cnc(Nc3cc(OC)cc(OC)c3)nc2-n2ccc(C(F)(F)F)n2)cnc1OC [Example 809, 5-{2-[(3,5-dimethoxyphenyl)amino]-4-[3-(trifluoromethyl)-1H-pyrazol-1-yl]pyrimidin-5-yl}-2-methoxy-N-methylpyridine-3-carboxamide] | 100%
CONC(=O)c1cc(-c2cnc(Nc3cc(OC)cc(OC)c3)nc2-n2nc(C(F)(F)F)cc2C)cnc1OC [Example 810, 5-{2-[(3,5-dimethoxyphenyl)amino]-4-[5-methyl-3-(trifluoromethyl)-1H-pyrazol-1-yl]pyrimidin-5-yl}-N,2-dimethoxypyridine-3-carboxamide] | 100%
CONC(=O)c1cc(-c2cnc(Nc3cc(OC)cc(OC)c3)nc2-n2ccc(C(F)(F)F)n2)cnc1OC [Example 811, 5-{2-[(3,5-dimethoxyphenyl)amino]-4-[3-(trifluoromethyl)-1H-pyrazol-1-yl]pyrimidin-5-yl}-N,2-dimethoxypyridine-3-carboxamide] | 100%
COc1cc(Nc2ncc(-c3cnc(OC)c(C(=O)NCCS(C)(=O)=O)c3)c(-n3nc(C(F)(F)F)cc3C)n2)cc(OC)c1 [Example 812, 5-{2-[(3,5-dimethoxyphenyl)amino]-4-[5-methyl-3-(trifluoromethyl)-1H-pyrazol-1-yl]pyrimidin-5-yl}-2-methoxy-N-[2-(methylsulfonyl)ethyl]pyridine-3-carboxamide] | 100%
COc1cc(Nc2ncc(-c3cnc(OC)c(C(=O)NCCS(C)(=O)=O)c3)c(-n3ccc(C(F)(F)F)n3)n2)cc(OC)c1 [Example 813, 5-{2-[(3,5-dimethoxyphenyl)amino]-4-[3-(trifluoromethyl)-1H-pyrazol-1-yl]pyrimidin-5-yl}-2-methoxy-N-[2-(methylsulfonyl)ethyl]pyridine-3-carboxamide] | 100%
CCS(=O)(=O)NC(=O)c1cc(-c2cnc(Nc3cc(OC)cc(OC)c3)nc2-n2ccc(C(F)(F)F)n2)cnc1OC [Example 814, 5-{2-[(3,5-dimethoxyphenyl)amino]-4-[3-(trifluoromethyl)-1H-pyrazol-1-yl]pyrimidin-5-yl}-N-(ethylsulfonyl)-2-methoxypyridine-3-carboxamide] | 100%
CCS(=O)(=O)NC(=O)c1cc(-c2cnc(Nc3cc(OC)cc(OC)c3)nc2-n2nc(C(F)(F)F)cc2C)cnc1OC [Example 815, 5-{2-[(3,5-dimethoxyphenyl)amino]-4-[5-methyl-3-(trifluoromethyl)-1H-pyrazol-1-yl]pyrimidin-5-yl}-N-(ethylsulfonyl)-2-methoxypyridine-3-carboxamide] | 100%
CCCS(=O)(=O)NC(=O)c1cc(-c2cnc(Nc3cc(OC)cc(OC)c3)nc2-n2ccc(C(F)(F)F)n2)cnc1OC [Example 816, 5-{2-[(3,5-dimethoxyphenyl)amino]-4-[3-(trifluoromethyl)-1H-pyrazol-1-yl]pyrimidin-5-yl}-2-methoxy-N-(propylsulfonyl)pyridine-3-carboxamide] | 100%
CCCS(=O)(=O)NC(=O)c1cc(-c2cnc(Nc3cc(OC)cc(OC)c3)nc2-n2nc(C(F)(F)F)cc2C)cnc1OC [Example 817, 5-{2-[(3,5-dimethoxyphenyl)amino]-4-[5-methyl-3-(trifluoromethyl)-1H-pyrazol-1-yl]pyrimidin-5-yl}-2-methoxy-N-(propylsulfonyl)pyridine-3-carboxamide] | 100%
COc1cc(Nc2ncc(-c3cnc(OC)c(C(=O)NS(=O)(=O)C(C)C)c3)c(-n3ccc(C(F)(F)F)n3)n2)cc(OC)c1 [Example 818, 5-{2-[(3,5-dimethoxyphenyl)amino]-4-[3-(trifluoromethyl)-1H-pyrazol-1-yl]pyrimidin-5-yl}-2-methoxy-N-(propan-2-ylsulfonyl)pyridine-3-carboxamide] | 100%
COc1cc(Nc2ncc(-c3cnc(OC)c(C(=O)NS(=O)(=O)C(C)C)c3)c(-n3nc(C(F)(F)F)cc3C)n2)cc(OC)c1 [Example 819, 5-{2-[(3,5-dimethoxyphenyl)amino]-4-[5-methyl-3-(trifluoromethyl)-1H-pyrazol-1-yl]pyrimidin-5-yl}-2-methoxy-N-(propan-2-ylsulfonyl)pyridine-3-carboxamide] | 100%
COc1cc(Nc2ncc(-c3cnc(OC)c(C(=O)NS(=O)(=O)CCCN4CCOCC4)c3)c(-n3ccc(C(F)(F)F)n3)n2)cc(OC)c1 [Example 820, 5-{2-[(3,5-dimethoxyphenyl)amino]-4-[3-(trifluoromethyl)-1H-pyrazol-1-yl]pyrimidin-5-yl}-2-methoxy-N-{[3-(morpholin-4-yl)propyl]sulfonyl}pyridine-3-carboxamide] | 100%
